Broadly, the IC50 is the concentration that gives 50% inhibition.

The target of this assay is T1, PAR4 (Homo sapiens, UniProt Q96RI0).
T1 construct: expressed in transfected cells; host or cells: HEK293 PAR4 Clone 1.2A (BMS Arctic ID 383940)
T1 sequence (Q96RI0 18-385): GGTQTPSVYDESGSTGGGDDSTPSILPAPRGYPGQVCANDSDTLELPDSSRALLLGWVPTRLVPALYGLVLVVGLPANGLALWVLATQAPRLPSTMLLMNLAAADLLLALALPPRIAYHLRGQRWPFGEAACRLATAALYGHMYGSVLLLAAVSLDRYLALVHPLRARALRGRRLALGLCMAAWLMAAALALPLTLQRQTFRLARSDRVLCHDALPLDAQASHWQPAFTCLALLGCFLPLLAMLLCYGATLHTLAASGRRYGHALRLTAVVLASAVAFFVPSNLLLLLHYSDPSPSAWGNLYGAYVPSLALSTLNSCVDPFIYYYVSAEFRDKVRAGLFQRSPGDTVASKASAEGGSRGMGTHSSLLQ
Kind of assay: PAR4 FLIPR assay (antagonism of agonist peptide-induced calcium mobilization). It counts as cell-based. An outline of the steps: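 Antagonism was taken as block of calcium mobilization evoked by the agonist peptide H-Ala-Phe(4-F)-Pro-Gly-Trp-Leu-Val-Lys-Asn-[…]-NH2, added after 30 min room-temperature compound preincubation in dye-loaded PAR4-transfected HEK293 cells (endogenous PAR1). Fluorescence was read on FDSS, with compound addition alone used as the agonist counter-screen; values come from 11-point concentration-response curves.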
As to `COc1cnc2c(-c3nc4c(Cl)cc5c(c4s3)CC(COC(=O)Nc3cccnc3)O5)cc(C)cc2n1` (centres unmarked) [Example 18, (4-chloro-2-(2-methoxy-7-methylquinoxalin-5-yl)-7,8-dihydrobenzofuro[5,4-d]thiazol-7-yl)methyl pyridin-3-ylcarbamate], the IC50 stood at 5.7 nM. In the case of `COC(=O)c1cc(NC(=O)OCC2COc3c(cc(C)c4nc(-c5cc(C)cc6nc(OC)cnc56)sc34)O2)ccn1` (centres unmarked) [Example 134, methyl 4-((((2-(2-methoxy-7-methylquinoxalin-5-yl)-4-methyl-7,8-dihydro-[1,4]dioxino[2′,3′:3,4]benzo[1,2-d]thiazol-7-yl)methoxy)carbonyl)amino) picolinate], the IC50 came out at 3.3 nM. As for `COc1cnc2c(-c3nc4ccc5c(c4s3)C[C@H](COC(=O)Nc3cnc(C)nc3)O5)cc(C)cc2n1` [Example 144, (R)-(2-(2-methoxy-7-methylquinoxalin-5-yl)-7,8-dihydrobenzofuro[5,4-d]thiazol-7-yl)me thyl (2-methylpyrimidin-5-yl)carbamate], the figure is 1.2 nM; as for `COc1cnc2c(-c3nc4c(F)cc5c(c4s3)OC[C@H](COC(=O)Nc3cccnc3)O5)cc(C)cc2n1` [Example 70, (R)-(4-fluoro-2-(2-methoxy-7-methylquinoxalin-5-yl)-7,8-dihydro-[1,4]dioxino[2′,3′:3,4]benzo[1,2-d]thiazol-7-yl)methyl pyridin-3-ylcarbamate], 25 nM; as for `COc1cnc2c(-c3nc4cc(F)c5c(c4s3)C[C@@H](CNC(=O)Oc3ccccc3)O5)cc(C)cc2n1` [Example 212, (S)-phenyl ((5-fluoro-2-(2-methoxy-7-methylquinoxalin-5-yl)-7,8-dihydrobenzofuro[5,4-d]thiazol-7-yl)methyl)carbamate], 2.1 nM. As for `COc1cnc2c(-c3nc4c(C)cc5c(c4s3)OC[C@H](COC(=O)Nc3ccc(F)nc3)O5)cc(C)cc2n1` [Example 41, (R)-(2-(2-methoxy-7-methylquinoxalin-5-yl)-4-methyl-7,8-dihydro-[1,4]dioxino[2′,3′:3,4]benzo[1,2-d]thiazol-7-yl)methyl (6-fluoropyridin-3-yl)carbamate], the IC50 amounted to 1.6 nM. The figure for `COc1cnc2c(-c3nc4c(F)cc5c(c4s3)OC[C@H](COC(=O)Nc3cccnc3)O5)cc(CO)cc2n1` [Example 83, (R)-(4-fluoro-2-(7-(hydroxymethyl)-2-methoxyquinoxalin-5-yl)-7,8-dihydro-[1,4]dioxino [2′,3′:3,4]benzo[1,2-d]thiazol-7-yl)methyl pyridin-3-ylcarbamate] is 29 nM. On to `COc1cnc2c(-c3nc4c(C)cc5c(c4s3)OCC(COC(=O)Nc3ccc(F)nc3)O5)cc(Cl)cc2n1` (centres unmarked) [Example 96, (2-(7-chloro-2-methoxyquinoxalin-5-yl)-4-methyl-7,8-dihydro-[1,4]dioxino[2′,3′:3,4]benzo[1,2-d]thiazol-7-yl)methyl (6-fluoropyridin-3-yl)carbamate], for which the half-inhibitory concentration (IC50) was found to be 12 nM. For the compound `COc1cnc2c(-c3nc4c(C(O)C5(C(F)(F)F)CC5)cc5c(c4s3)OCCO5)cc(C)cc2n1` (centres unmarked) [Example 279, (2-(2-methoxy-7-methylquinoxalin-5-yl)-7,8-dihydro-[1,4]dioxino[2′,3′:3,4]benzo[1,2-d]thiazol-4-yl)(1-(trifluoromethyl)cyclopropyl)methanol], the IC50 turned out to be 9.1 nM. The figure for `COc1cnc2c(-c3nc4cc(F)c5c(c4s3)C[C@H](COC(=O)Nc3cncc(C#N)c3)O5)cc(C)cc2n1` [Example 154, (R)-(5-fluoro-2-(2-methoxy-7-methylquinoxalin-5-yl)-7,8-dihydrobenzofuro[5,4-d]thiazol-7-yl)methyl (5-cyanopyridin-3-yl)carbamate] is 6.3 nM; for `COc1cnc2c(-c3nc4cc(F)c5c(c4s3)C[C@@H](CNC(=O)N3CCOCC3)O5)cc(C)cc2n1` [Example 258, (S)-N-((5-fluoro-2-(2-methoxy-7-methylquinoxalin-5-yl)-7,8-dihydrobenzofuro[5,4-d]thiazol-7-yl)methyl)morpholine-4-carboxamide] it is 8.1 nM. As for `COc1cnc2c(-c3nc4c(C)cc5c(c4s3)OCC(COC(=O)Nc3cnc(C)c(C)c3)O5)cc(C)cc2n1` (centres unmarked) [Example 119, (2-(2-methoxy-7-methylquinoxalin-5-yl)-4-methyl-7,8-dihydro-[1,4]dioxino[2′,3′:3,4]benzo[1,2-d]thiazol-7-yl)methyl (5,6-dimethylpyridin-3-yl)carbamate], the figure is 2.1 nM; as for `COc1cnc2c(-c3nc4c(Cl)cc5c(c4s3)CC(COC(=O)Nc3ccc(C)nc3)O5)cc(C)cc2n1` (centres unmarked) [Example 19, (4-chloro-2-(2-methoxy-7-methylquinoxalin-5-yl)-7,8-dihydrobenzofuro[5,4-d]thiazol-7-yl)methyl (6-methylpyridin-3-yl)carbamate], 2.6 nM; as for `COc1cnc2c(-c3nc4cc(F)c5c(c4s3)C[C@H](CNC(=O)Cc3ccccc3)O5)cc(C)cc2n1` [Example 217, (R)-N-((5-fluoro-2-(2-methoxy-7-methylquinoxalin-5-yl)-7,8-dihydrobenzofuro[5,4-d]thiazol-7-yl)methyl)-2-phenylacetamide], 120 nM. As for `COc1cnc2c(-c3nc4c(C)cc5c(c4s3)OCC(COC(=O)Nc3ccc4c(c3)C(=O)NCC4)O5)cc(C)cc2n1` (centres unmarked) [Example 78, (2-(2-methoxy-7-methylquinoxalin-5-yl)-4-methyl-7,8-dihydro-[1,4]dioxino[2′,3′:3,4]benzo[1,2-d]thiazol-7-yl)methyl (1-oxo-1,2,3,4-tetrahydroisoquinolin-7-yl)carbamate], the IC50 came out at 8.6 nM. As to `COc1cnc2c(-c3nc4c(C)cc5c(c4s3)OC[C@H](COC(=O)Nc3ccnc(C)c3)O5)cc(CO)cc2n1` [Example 99, (R)-(2-(7-(hydroxymethyl)-2-methoxyquinoxalin-5-yl)-4-methyl-7,8-dihydro-[1,4]dioxino[2′,3′:3,4]benzo[1,2-d]thiazol-7-yl)methyl (2-methylpyridin-4-yl)carbamate], the IC50 was 2 nM. As for `COC(=O)NC[C@H]1Oc2c(F)cc3nc(-c4cc(C)cc5nc(OC)cnc45)sc3c2[C@@H]1C` [Example 255, Methyl (((7S,8S)-5-fluoro-2-(2-methoxy-7-methylquinoxalin-5-yl)-8-methyl-7,8-dihydrobenzofuro[5,4-d]thiazol-7-yl)methyl)carbamate], the figure is 1.4 nM. As for `COc1cnc2c(-c3nc4c(C)cc5c(c4s3)OC[C@H](COC(=O)Nc3cnc4c(c3)ncn4C)O5)cc(C)cc2n1` [Example 54, (R)-(2-(2-methoxy-7-methylquinoxalin-5-yl)-4-methyl-7,8-dihydro-[1,4]dioxino[2′,3′:3,4]benzo[1,2-d]thiazol-7-yl)methyl (3-methyl-3H-imidazo[4,5-b]pyridin-6-yl)carbamate], the figure is 1.6 nM; as for `COc1cnc2c(-c3nc4cc(F)c5c(c4s3)[C@H](C)[C@H](CO)O5)cc(C)cc2n1` (relative stereo) [Example 199], 71 nM; as for `COc1cnc2c(-c3nc4c(Cl)cc5c(c4s3)OC[C@H](COC(=O)Nc3ccnc(C)c3)O5)cc(C)cc2n1` [Example 33, (R)-(4-chloro-2-(2-methoxy-7-methylquinoxalin-5-yl)-7,8-dihydro-[1,4]dioxino[2′,3′:3,4]benzo[1,2-d]thiazol-7-yl)methyl (2-methylpyridin-4-yl)carbamate], 2.8 nM.

The values are drawn from patent publication US11932658B2 (BRISTOL-MYERS SQUIBB COMPANY, priority 2016, dated 2024).
